This is an account of results in PubChem BioAssay (NCI).

Molecules are shown by their SMILES. Several values for one entry are separate records, joined by “and”; a condition that tells them apart may be missing. Equal entries are not always repeated.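 Dose response: 5 concentrations. Exposure: 48 h. Format: 96-well plates. Endpoint: linear interpolation; highest concentration if not reached. Abbreviation: GI50, concentration required for 50% inhibition of growth. TGI: concentration producing complete growth inhibition.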

Among the test systems are MCF7 breast; HOP-62 NSCLC; K-562 leukemia; KM12 colon; TK-10 renal; RPMI-8226 leukemia; SF-268 CNS; SK-MEL-28 melanoma; NCI-H460 lung; SNB-75 CNS.
Holding throughout (assay): DTP human tumour cell line panel, 48 h

Turning to `S=c1[nH]nc(SCc2ccccc2Cl)c2[nH]cnc12`, the TGI with MCF7 breast, in the experiment on HOP-62 NSCLC, in the experiment on K-562 leukemia, in the experiment with KM12 colon, with TK-10 renal and with RPMI-8226 leukemia was greater than 100 µM in each case. The TGI in the experiment with SF-268 CNS, in the experiment on SK-MEL-28 melanoma, with NCI-H460 lung and in the experiment on SNB-75 CNS was greater than 100 µM each time.

On to `O=C(O)c1ccc2cccnc2c1O`, for which the GI50 is 1500 nM in the experiment on MCF7 breast; 1.37 µM in the experiment with HOP-62 NSCLC; 896 nM with K-562 leukemia; 2.02 µM with KM12 colon; 1.85 µM with TK-10 renal; 930 nM in the experiment with RPMI-8226 leukemia. The GI50 is 0.999 µM in the experiment with SF-268 CNS, 3.69 µM in the experiment with SK-MEL-28 melanoma, 0.551 µM with NCI-H460 lung and 1510 nM in the experiment with SNB-75 CNS. Besides, the TGI in the experiment on MCF7 breast was greater than 100 µM; in the experiment on HOP-62 NSCLC, 41.6 µM; in the experiment on K-562 leukemia, greater than 100 µM; in the experiment on KM12 colon, 25 µM; in the experiment on TK-10 renal, greater than 100 µM; in the experiment on RPMI-8226 leukemia, greater than 21.1 µM. The TGI is 98.5 µM with SF-268 CNS, greater than 100 µM in the experiment with SK-MEL-28 melanoma, 11.1 µM in the experiment on NCI-H460 lung and greater than 100 µM with SNB-75 CNS.

For `COc1cc(/C=C/c2cc(/C=C/c3ccc(O)c(OC)c3)[nH]c(=O)n2)ccc1O`, the GI50 with MCF7 breast is 2960 nM; with HOP-62 NSCLC it was 4.11 µM; in the experiment with K-562 leukemia it was 3660 nM; with KM12 colon it was 3.44 µM; in the experiment on TK-10 renal, 6.13 µM; with RPMI-8226 leukemia, 2100 nM. Besides, the GI50 was 4.58 µM in the experiment on SF-268 CNS, 3.05 µM in the experiment with SK-MEL-28 melanoma, 3.12 µM with NCI-H460 lung and 1720 nM with SNB-75 CNS. Also, the TGI with MCF7 breast worked out at 11.4 µM; with HOP-62 NSCLC it was 17.6 µM; with K-562 leukemia, 35.8 µM; with KM12 colon it was 14.2 µM; in the experiment on TK-10 renal, 36 µM; in the experiment with RPMI-8226 leukemia, 5.68 µM. Further, the TGI is greater than 100 µM with SF-268 CNS, 13.1 µM in the experiment with SK-MEL-28 melanoma, 18.5 µM in the experiment on NCI-H460 lung and 12 µM with SNB-75 CNS.

As to `O=c1[nH]cnc2nc(-c3ccc(N(CCCl)CCCl)cc3)[nH]c12`, the GI50 in the experiment with MCF7 breast was greater than 100000 nM; with HOP-62 NSCLC it was 10.7 µM; in the experiment with K-562 leukemia, 1900 nM; with KM12 colon, 70.3 µM; in the experiment on TK-10 renal, 15.4 µM; in the experiment with RPMI-8226 leukemia it was greater than 100000 nM. The GI50 was 28.6 µM with SF-268 CNS, greater than 100 µM in the experiment on SK-MEL-28 melanoma, 4.51 µM in the experiment with NCI-H460 lung and 18100 nM in the experiment on SNB-75 CNS. In addition, the TGI is greater than 100 µM in the experiment with MCF7 breast; 63.8 µM in the experiment on HOP-62 NSCLC; greater than 100 µM in the experiment on K-562 leukemia; greater than 100 µM in the experiment on KM12 colon; 48.4 µM with TK-10 renal; greater than 100 µM with RPMI-8226 leukemia. Also, the TGI in the experiment with SF-268 CNS is greater than 100 µM; in the experiment on SK-MEL-28 melanoma, greater than 100 µM; in the experiment with NCI-H460 lung, greater than 100 µM; in the experiment on SNB-75 CNS, 74.2 µM.

As for `O=[N+]([O-])c1ccc(NC(=S)N/N=C(\c2ccccc2)c2ccccn2)cc1`, the GI50 in the experiment on MCF7 breast was 39.3 nM; with HOP-62 NSCLC it was 1.3 µM; in the experiment on K-562 leukemia it was 4.98 nM; with RPMI-8226 leukemia, 1200 nM; in the experiment on SK-MEL-28 melanoma, 1.38 µM; in the experiment with NCI-H460 lung it was 1.47 µM. In addition, the TGI was 1.55 µM and 2.75 µM in the experiment on MCF7 breast; 2.98 µM and 1.62 µM in the experiment on HOP-62 NSCLC; 2.41 µM and 3.82 µM with K-562 leukemia; 3.35 µM and 4.12 µM in the experiment with KM12 colon; 2.51 µM in the experiment on TK-10 renal; 5.6 µM and > 27 µM with RPMI-8226 leukemia. In addition, the TGI was 1.9 µM and 1.84 µM in the experiment with SF-268 CNS; 2.9 µM and 2.69 µM in the experiment with SK-MEL-28 melanoma; 3.36 µM and 11.9 µM in the experiment with NCI-H460 lung; 3.76 µM with SNB-75 CNS.

Take `c1ccc(-c2cnc3nc4ccccc4nc3n2)cc1`: the TGI with MCF7 breast is 4.71 µM; in the experiment with HOP-62 NSCLC, 65.3 µM; with K-562 leukemia, greater than 100 µM; in the experiment with KM12 colon, 21.8 µM; in the experiment with TK-10 renal it was 20.8 µM; with RPMI-8226 leukemia, 23.9 µM. Moreover, the TGI in the experiment with SF-268 CNS is 17.8 µM; in the experiment on SK-MEL-28 melanoma, 32.8 µM; in the experiment on NCI-H460 lung, 13.3 µM; with SNB-75 CNS, 22.8 µM.

Take `C[C@H]1CC2=CC(=O)CC[C@]2(C)[C@H]2CC[C@@]3(C)[C@@H](CC[C@]3(C)O)[C@H]12`: the GI50 in the experiment with MCF7 breast is 24900 nM; in the experiment on HOP-62 NSCLC it was 33.5 µM; in the experiment with K-562 leukemia, 24700 nM; with KM12 colon, 27.5 µM; in the experiment on TK-10 renal it was 31.5 µM; in the experiment on RPMI-8226 leukemia, 7580 nM. For the same compound, the GI50 with SF-268 CNS was 33.3 µM; in the experiment on SK-MEL-28 melanoma it was 29.3 µM; in the experiment with NCI-H460 lung, 30 µM; in the experiment on SNB-75 CNS, 40200 nM. The TGI with MCF7 breast was greater than 76.7 µM; with HOP-62 NSCLC, greater than 76.1 µM; in the experiment with K-562 leukemia, greater than 88.1 µM; in the experiment on KM12 colon it was greater than 75.4 µM; in the experiment with TK-10 renal, 97.5 µM; in the experiment on RPMI-8226 leukemia, 38 µM. In addition, the TGI with SF-268 CNS is greater than 100 µM; in the experiment on SK-MEL-28 melanoma it was greater than 85.2 µM; in the experiment on NCI-H460 lung it was greater than 100 µM; with SNB-75 CNS, greater than 100 µM.

For the compound `CC(=O)O[C@H](C[C@H](C(C)C)N(C)C(=O)[C@@H](NC(=O)[C@H]1CCCCN1C)C(C)(C)C)c1nc(C(=O)N[C@@H](Cc2ccccc2)C[C@H](C)C(=O)O)cs1`, the GI50 with MCF7 breast is less than 2.5 nM; in the experiment on HOP-62 NSCLC, less than 0.0025 µM; in the experiment on K-562 leukemia, less than 2.5 nM; in the experiment with KM12 colon, less than 0.0025 µM; in the experiment on TK-10 renal, 0.00962 µM; in the experiment with RPMI-8226 leukemia, less than 2.5 nM. Also, the GI50 with SF-268 CNS is 0.00432 µM; in the experiment with SK-MEL-28 melanoma, 1.05 µM; in the experiment on NCI-H460 lung, less than 0.0025 µM; in the experiment on SNB-75 CNS, less than 2.5 nM. The TGI in the experiment on MCF7 breast, in the experiment with HOP-62 NSCLC, with K-562 leukemia, in the experiment on TK-10 renal, in the experiment with RPMI-8226 leukemia and in the experiment on SF-268 CNS was greater than 25 µM throughout. In addition, the TGI with SK-MEL-28 melanoma, in the experiment on NCI-H460 lung and in the experiment with SNB-75 CNS was greater than 25 µM each time.
